The experiment concerns the target Dipeptidyl peptidase 4 (Homo sapiens, UniProt P27487). Nature of the experiment: Inhibitory activity against Dipeptidylpeptidase IV (DPP IV) in human acute lymphoblastic leukemia MOLT-4 cell line.

pIC50: −log10 of the molar value.

Here are results for one compound from BindingDB's records for doi:10.1016/s0960-894x(99)00034-7 (University of Tokyo, 1999).

Chain of Dipeptidyl peptidase 4 (P27487 whole entry): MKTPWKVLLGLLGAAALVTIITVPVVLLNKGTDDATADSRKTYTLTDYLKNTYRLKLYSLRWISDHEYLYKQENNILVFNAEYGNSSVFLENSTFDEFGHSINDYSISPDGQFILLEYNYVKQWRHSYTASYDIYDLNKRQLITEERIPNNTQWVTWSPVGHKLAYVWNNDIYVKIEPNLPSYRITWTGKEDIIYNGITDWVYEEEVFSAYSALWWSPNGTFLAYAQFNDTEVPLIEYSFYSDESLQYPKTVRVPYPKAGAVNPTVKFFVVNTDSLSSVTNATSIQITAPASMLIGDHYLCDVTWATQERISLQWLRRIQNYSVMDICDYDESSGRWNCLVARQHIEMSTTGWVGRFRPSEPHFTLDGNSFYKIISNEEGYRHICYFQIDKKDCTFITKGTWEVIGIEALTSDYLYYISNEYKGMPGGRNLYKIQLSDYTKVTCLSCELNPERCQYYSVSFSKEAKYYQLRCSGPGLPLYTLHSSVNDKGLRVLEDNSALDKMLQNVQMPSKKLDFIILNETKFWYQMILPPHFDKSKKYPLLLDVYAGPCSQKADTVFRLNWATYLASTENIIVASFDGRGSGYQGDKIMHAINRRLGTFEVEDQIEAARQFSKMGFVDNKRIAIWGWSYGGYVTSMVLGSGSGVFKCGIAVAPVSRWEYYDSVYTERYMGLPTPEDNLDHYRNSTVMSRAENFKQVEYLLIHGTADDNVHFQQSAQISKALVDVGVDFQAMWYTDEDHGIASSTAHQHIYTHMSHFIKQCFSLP

As a reminder, the pIC50 is the IC50 on a negative log10 scale, so that one unit is a factor of ten. A high value points to a small IC50. Consider `CC(C)C[C@H](NC(=O)[C@@H](O)[C@H](N)Cc1ccccc1)C(=O)O`, for which the pIC50 was < 3.49.
